Columns and labels:
[1] = Toxicity in po dosed mouse assessed as mortality after 7 days; conditions: in vivo
Rattus norvegicus = assay: Hypotensive activity in po dosed spontaneously hypertensive Wistar-Okamoto rat assessed as dose required to cause 30 mmHg fall of blood pressure administered for 5 days; assay type: functional; conditions: 120 h, read-out: MED

| Structure (SMILES) | LD50 at 168 h [1] [mg/kg] | minimal effective dose (Rattus norvegicus) [mg/kg] |
| --- | --- | --- |
| CCC(C)(C)N/C(=N\O)Nc1cccnc1 | 600 | > 20 |
| CCCC/N=C(\NC#N)Nc1cccnc1 | > 1000 | 20 |
| CCC(C)(C)N/C(=N\C#N)Nc1ccc(OC)cc1 | > 1000 | 50 |
| CC(C)CC(C)(C)/N=C(\NC#N)Nc1ccncc1 | > 1000 | 20 |
| N#CN/C(=N\C1CCCCC1)Nc1ccncc1 | 600 | 20 |
| CC(C)(C)N/C(=N\C#N)Nc1cnc2ccccc2c1 | > 1000 | 20 |
| CC(C)(C)CC(C)(C)/N=C(\NC#N)Nc1cccnc1 | > 1000 | 50 |
| CC(C)(C)C(C)(C)/N=C(\NC#N)Nc1cccnc1 | > 1000 | 50 |
| CCC(C)(C)/N=C(\NC#N)Nc1ccncc1 | 600 | 2.5 |
| CCC(C)(CC)/N=C(\NC#N)Nc1ccncc1 | 300 | 0.5 |
| CC(/N=C(\NC#N)Nc1ccncc1)C1CC1 (configuration not stated) | 200 | 3 |
| CCC(C)(C)N/C(=N\C#N)Nc1ccccc1 | > 1000 | 50 |
| CC(C)C/N=C(\NC#N)Nc1cccnc1 | > 1000 | 20 |
| CC(C)C(C)(C)/N=C(\NC#N)Nc1ccncc1 | 1000 | 20 |
| CC(C)CC/N=C(\NC#N)Nc1cccnc1 | > 1000 | 20 |
| CCC(C)(C)N/C(=N\C#N)NCCCN(C)C | > 1000 | 25 |
| CCCC(C)(C)/N=C(\NC#N)Nc1cccnc1 | > 1000 | 1 |
| CC(C)C(/N=C(\NC#N)Nc1cccnc1)C(C)C | > 1000 | 5 |
| CC(C)(C)N/C(=N\C#N)Nc1c(Cl)cccc1Cl | > 1000 | > 50 |
| Cc1nn(C)c(C)c1N/C(=N/C#N)NC(C)(C)C | > 1000 | 5 |
| C=C(C)C/N=C(\NC#N)Nc1cccnc1 | 1000 | 20 |
| Cn1nc(-c2ccc(Cl)cc2)cc1N/C(=N/C#N)NC(C)(C)C | > 1000 | > 50 |
| Cc1noc(C)c1N/C(=N/C#N)NC(C)C(C)(C)C (configuration not stated) | > 1000 | 20 |
| N#CN/C(=N\Cc1ccccc1)Nc1ccncc1 | 600 | 5 |
| N#CN/C(=N\c1cccnc1)N1CCCCC1 | > 1000 | 20 |
| Cc1cccc(C)c1N/C(=N/C#N)NC(C)(C)C | > 1000 | > 50 |

| Structure (SMILES) | LD50 at 168 h [1] [mg/kg] | minimal effective dose (Rattus norvegicus) [mg/kg] |
| --- | --- | --- |
| CN(C)c1ccc(N/C(=N/C#N)NC(C)(C)C)cc1 | > 1000 | > 50 |
| CCC(C)(C)N/C(=N\C#N)NCc1ccncc1.O | > 1000 | 20 |
| Cc1cccc(C)c1/N=C(\NC#N)Nc1cccnc1 | > 1000 | 50 |
| CC(NC(=NC#N)Nc1ccccc1)C(C)(C)C (configuration not stated) | > 1000 | > 50 |
| COc1ccc(N/C(=N/C(C)(C)C)NC#N)cn1 | 400 | 15 |
| CCOc1ccccc1N/C(=N/C#N)NC(C)(C)CC | > 1000 | 20 |
| Cc1cc(C)c(/N=C(\NC#N)NC(C)(C)C)c(C)n1 | > 1000 | > 50 |
| N#CN/C(=N\C1CCCCC1)Nc1ccccn1 | 1000 | > 35 |
| CC(C)(C)N/C(=N\C#N)Nc1ccc(O)cc1 | > 1000 | > 50 |
| CCC(CC)(CC)/N=C(\NC#N)Nc1cccnc1 | > 1000 | 1 |
| CC(C)(C)/N=C(\NC#N)Nc1ccc(Cl)cn1 | 800 | 25 |
| CN1CCN(/C(=N/C#N)NC(C)(C)C)CC1 | > 1000 | > 50 |
| CC(C)/N=C(\NC#N)Nc1cccnc1 | > 1000 | 2.5 |
| CCCCC/N=C(\NC#N)Nc1cccnc1 | > 1000 | 20 |
| CC(C)(C)N/C(=N\O)Nc1cccnc1 | 1000 | > 35 |
| CC(C)(C)N/C(=N\C#N)NCCc1ccccn1 | 800 | 25 |
| CCC(CC)/N=C(\NC#N)Nc1cccnc1 | 600 | 20 |
| CC(C)C(/N=C(\NC#N)Nc1ccncc1)C(C)C | 250 | 8 |
| CC(C)(N/C(=N\C#N)Nc1ccncc1)c1ccccc1 | > 1000 | > 50 |
| CC(C)(C)C(C)(C)/N=C(\NC#N)Nc1ccncc1 | > 1000 | 20 |
| N#CN/C(=N\C(C1CC1)C1CC1)Nc1ccncc1 | 600 | 10 |
| N#CN/C(=N\c1ccccc1)Nc1cccnc1 | > 1000 | 5 |
| N#CN/C(=N\c1ccccc1)Nc1ccncc1 | > 1000 | 50 |
| CCC(C)/N=C(\NC#N)Nc1cccnc1 (configuration not stated) | > 1000 | 20 |
| CC1(/N=C(\NC#N)Nc2cccnc2)CCC1 | > 1000 | 50 |
| CCC(C)(C)N/C(=N\C(N)=O)Nc1cccnc1 | > 1000 | > 50 |

| Structure (SMILES) | LD50 at 168 h [1] [mg/kg] | minimal effective dose (Rattus norvegicus) [mg/kg] |
| --- | --- | --- |
| CCCN(CCC)S(=O)(=O)/N=C(/Nc1cccnc1)NC(C)(C)CC | > 1000 | > 50 |
| CC(C)(C)C/N=C(/NC#N)Nc1cccnc1 | > 1000 | 2.5 |
| CCC(C)(C)N/C(=N\C#N)Nc1ccc[n+]([O-])c1 | > 1000 | 20 |
| CC(C)C(C)(C)/N=C(\NC#N)Nc1cccnc1 | > 1000 | 1 |
| CCC(CC)N/C(=N\O)Nc1cccnc1 | > 1000 | 50 |
| CC(N/C(=N\C#N)NCc1ccncc1)C(C)(C)C (configuration not stated) | > 1000 | 20 |
| CCC(C)(C)N/C(=N\C#N)Nc1cc(C)nc2ccccc12 | > 1000 | 10 |
| CCC(C)(C)N/C(=N\C#N)Nc1ccc(N(C)C)cc1 | > 1000 | > 50 |
| CC(C)CC(C)(C)/N=C(\NC#N)Nc1cccnc1 | > 1000 | 2.5 |
| CCOCC/N=C(\NC#N)Nc1cccnc1 | 600 | > 20 |
| CCC(C)(C)N/C(=N\C(=O)C(F)(F)F)Nc1cccnc1 | > 1000 | > 50 |
| CCC(CC)(CC)/N=C(\NC#N)Nc1ccncc1 | > 1000 | 2.5 |
| Cc1nn(C)c(N/C(=N/C#N)NC(C)(C)C)c1Cl | > 1000 | 20 |
| N#CN/C(=N\CCc1ccccc1)Nc1ccncc1 | > 1000 | 20 |
| CC(/N=C(/NC#N)Nc1cccnc1)C(C)(C)C (configuration not stated) | 1000 | 1 |
| N#CN/C(=N\Cc1ccco1)Nc1cccnc1 | > 1000 | 20 |
| CC(=O)Nc1ccc(N/C(=N/C#N)NC(C)(C)C)cc1 | > 1000 | > 50 |
| CO/N=C(/Nc1cccnc1)NC(C)(C)C | > 1000 | 50 |
| CCC(C)(C)N/C(=N\S(=O)(=O)c1ccc(C)cc1)Nc1cccnc1 | > 1000 | > 50 |
| CCC(C)(C)N/C(N)=N/C#N [GUANCYDINE] | 800 | 15 |
| CCC(C)(C)N/C(=N\C=O)Nc1cccnc1 | 600 | > 20 |
| N#CN/C(=N\Cc1ccccc1)Nc1cccnc1 | > 1000 | 20 |
| CCC(C)(C)N/C(=N\C#N)Nc1c(C)cccc1C | > 1000 | 50 |
| CCOC(=O)/N=C(/Nc1cccnc1)NC(C)(C)CC | 600 | 20 |

— ChEMBL document CHEMBL3272224, “Synthesis and hypotensive activity of N-alkyl-N"-cyano-N'-pyridylguanidines” (J Med Chem, 1978)
